Results from patent US6737383B1, “Herbicidal oxadiazolidines” (priority 1999, dated 2004).

Key:
bamyardgrass = test: Test B flood test barnyardgrass; assay type: in vivo, Echinochloa crus-galli
Outline: (§1)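 Flood test on plants grown to the 2-leaf stage; treated plants kept in greenhouse twelve to sixteen days, then visually rated against controls on a 0 (no effect) to 10 (complete control) scale.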

cocklebur = test: Test B pre/postemergence cocklebur; assay type: in vivo, Xanthium strumarium
Outline: (§2)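 Test chemicals in a non-phytotoxic solvent mixture with surfactant were sprayed preemergence onto planted seeds and postemergence onto plants 2 to 18 cm tall (1- to 4-leaf stage). After twelve to sixteen days in a greenhouse, injury was visually rated against untreated controls from 0 (no effect) to 10 (complete control).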

morningglory = test: Test B pre/postemergence morningglory; assay type: in vivo, Ipomoea hederacea
Outline: as §2

velvetleaf = test: Test B pre/postemergence velvetleaf; assay type: in vivo, Abutilon theophrasti
Outline: as §2

surinam grass = test: Test B pre/postemergence surinam grass; assay type: in vivo, Brachiaria decumbens
Outline: as §2

wild oat = test: Test B pre/postemergence wild oat; assay type: in vivo, Avena fatua
Outline: as §2

blackgrass = test: Test B pre/postemergence blackgrass; assay type: in vivo, Alopecurus myosuroides
Outline: as §2

purple nutsedge = test: Test B pre/postemergence purple nutsedge; assay type: in vivo, Cyperus rotundus; conditions: Postemergence
Outline: as §2

sugar beet = test: Test B pre/postemergence sugar beet; assay type: in vivo, Beta vulgaris
Outline: as §2

rape = test: Test B pre/postemergence rape; assay type: in vivo, Brassica napus
Outline: as §2

crabgrass = test: Test B pre/postemergence crabgrass; assay type: in vivo, Digitaria sanguinalis
Outline: as §2

soybean = test: Test B pre/postemergence soybean; assay type: in vivo, Glycine max
Outline: as §2

pigweed = test: Test B pre/postemergence pigweed; assay type: in vivo, Amaranthus retroflexus
Outline: as §2

corn = test: Test B pre/postemergence corn; assay type: in vivo, Zea mays
Outline: as §2

giant foxtail = test: Test B pre/postemergence giant foxtail; assay type: in vivo, Setaria faberii
Outline: as §2

smallflower flatsedge = test: Test B flood test smallflower flatsedge; assay type: in vivo, Cyperus difformis
Outline: as §1

[1] = Rate 62 g/ha, headed Pre-emergence (flood test species), scale 0 to 10 (0 no effect, 10 complete control)
[2] = Rate 125 g/ha, Pre-emergence, flood test species, scale 0 to 10 where 0 is no effect and 10 is complete control
[3] = Rate 250 g/ha, Pre-emergence, flood-test species, scale 0 to 10, 0 is no effect, 10 is complete control
[4] = Rate 500 g/ha, Pre-emergence, flood test species, scale 0 to 10 (0 no effect, 10 complete control)
[5] = Preemergence, Rate 62 g/ha, scale of 0 to 10 where 0 is no effect and 10 is complete control
[6] = Preemergence, Rate 250 g/ha, scale of 0 to 10 where 0 is no effect and 10 is complete control
[7] = Preemergence, Rate 500 g/ha, scale of 0 to 10 where 0 is no effect and 10 is complete control
[8] = Rate 62 g/ha, Postemergence, scale of 0 to 10 where 0 is no effect and 10 is complete control
[9] = Rate 125 g/ha, Postemergence, scale 0 to 10
[10] = Rate 125 g/ha, Preemergence, scale of 0 to 10 where 0 is no effect and 10 is complete control
[11] = Rate 500 g/ha, Postemergence, scale 0 to 10, 0 no effect, 10 complete control

CC(C)N(C(=O)n1oc(=O)n(-c2cccnc2)c1=O)c1ccccc1 [Compound 235]
6: Plant response rating (0 to 10; 0 is no effect, 10 is complete control), Morningglory (morningglory; Rate 250 g/ha, Postemergence)
0: Barnyardgrass plant response rating (bamyardgrass; [1]) | Barnyardgrass plant response rating (bamyardgrass; [2]) | Barnyardgrass plant response rating (bamyardgrass; [3]) | Barnyardgrass plant response rating (bamyardgrass; [4]) | Cocklebur plant response rating (cocklebur; [5]) | Cocklebur plant response rating (cocklebur; [6]) | Plant response rating, Cocklebur (cocklebur; [7]) | Cocklebur plant response rating (cocklebur; [8]) | Cocklebur plant response rating (cocklebur; [9]) | Cocklebur plant response rating (cocklebur; [10]) | Plant response rating (0 to 10; 0 is no effect, 10 is complete control), Cocklebur (cocklebur; Rate 250 g/ha, Postemergence) | Cocklebur plant response rating (cocklebur; [11]) | Morningglory plant response rating (morningglory; [5]) | Morningglory plant response rating (morningglory; [6]) | Plant response rating, Morningglory (morningglory; [7]) | Morningglory plant response rating (morningglory; [10]) | Velvetleaf plant response rating (velvetleaf; [5]) | Velvetleaf plant response rating (velvetleaf; [6]) | Plant response rating, Velvetleaf (velvetleaf; [7]) | Velvetleaf plant response rating (velvetleaf; [8]) | Velvetleaf plant response rating (velvetleaf; [9]) | Velvetleaf plant response rating (velvetleaf; [10]) | Plant response rating (0 to 10; 0 is no effect, 10 is complete control), Velvetleaf (velvetleaf; Rate 250 g/ha, Postemergence) | Velvetleaf plant response rating (velvetleaf; [11]) | B. signalgrass plant response rating (surinam grass; [5]) | B. signalgrass plant response rating (surinam grass; Preemergence, Rate 250 g/ha, scale 0 to 10, 0 is no effect, 10 is complete control) | Plant response rating, B. signalgrass (surinam grass; [7]) | B. signalgrass plant response rating (surinam grass; [8]) | B. signalgrass plant response rating (surinam grass; Rate 125 g/ha, Postemergence, scale 0 (no effect) to 10 (complete control)) | B. signalgrass plant response rating (surinam grass; [10]) | Plant response rating (0 to 10; 0 is no effect, 10 is complete control), B. signalgrass (surinam grass; Rate 250 g/ha, Postemergence) | B. signalgrass plant response rating (surinam grass; [11]) | Wild oats plant response rating (wild oat; [5]) | Wild oats plant response rating (wild oat; [6]) | Plant response rating, Wild oats (wild oat; [7]) | Wild oats plant response rating (wild oat; [8]) | Wild oats plant response rating (wild oat; [9]) | Wild oats plant response rating (wild oat; [10]) | Plant response rating (0 to 10; 0 is no effect, 10 is complete control), Wild oats (wild oat; Rate 250 g/ha, Postemergence) | Wild oats plant response rating (wild oat; [11]) | Blackgrass plant response rating (blackgrass; [5]) | Blackgrass plant response rating (blackgrass; [6]) | Plant response rating, Blackgrass (blackgrass; [7]) | Blackgrass plant response rating (blackgrass; [8]) | Blackgrass plant response rating (blackgrass; [9]) | Blackgrass plant response rating (blackgrass; [10]) | Plant response rating (0 to 10; 0 is no effect, 10 is complete control), Blackgrass (blackgrass; Rate 250 g/ha, Postemergence) | Blackgrass plant response rating (blackgrass; [11]) | Nutsedge plant response rating (purple nutsedge; Rate 62 g/ha, scale of 0 to 10 where 0 is no effect and 10 is complete control) | Nutsedge plant response rating (purple nutsedge; Rate 125 g/ha, scale 0 to 10) | Plant response rating (0 to 10; 0 is no effect, 10 is complete control), Nutsedge (purple nutsedge; Rate 250 g/ha) | Nutsedge plant response rating (purple nutsedge; Rate 500 g/ha, scale 0 to 10, 0 no effect, 10 complete control) | Sugarbeets plant response rating (sugar beet; [5]) | Sugarbeets plant response rating (sugar beet; [6]) | Plant response rating, Sugarbeets (sugar beet; [7]) | Sugarbeets plant response rating (sugar beet; [8]) | Sugarbeets plant response rating (sugar beet; [9]) | Sugarbeets plant response rating (sugar beet; [10]) | Plant response rating (0 to 10; 0 is no effect, 10 is complete control), Sugarbeets (sugar beet; Rate 250 g/ha, Postemergence) | Sugarbeets plant response rating (sugar beet; [11]) | Rape plant response rating (rape; [5]) | Rape plant response rating (rape; [6]) | Plant response rating, Rape (rape; [7]) | Rape plant response rating (rape; [8]) | Rape plant response rating (rape; [9]) | Rape plant response rating (rape; [10]) | Plant response rating (0 to 10; 0 is no effect, 10 is complete control), Rape (rape; Rate 250 g/ha, Postemergence) | Rape plant response rating (rape; [11]) | Crabgrass plant response rating (crabgrass; [5]) | Crabgrass plant response rating (crabgrass; [6]) | Plant response rating, Crabgrass (crabgrass; [7]) | Crabgrass plant response rating (crabgrass; [8]) | Crabgrass plant response rating (crabgrass; [9]) | Crabgrass plant response rating (crabgrass; [10]) | Plant response rating (0 to 10; 0 is no effect, 10 is complete control), Crabgrass (crabgrass; Rate 250 g/ha, Postemergence) | Crabgrass plant response rating (crabgrass; [11]) | Soybean plant response rating (soybean; [5]) | Soybean plant response rating (soybean; [6]) | Plant response rating, Soybean (soybean; [7]) | Soybean plant response rating (soybean; [8]) | Soybean plant response rating (soybean; [9]) | Soybean plant response rating (soybean; [10]) | Plant response rating (0 to 10; 0 is no effect, 10 is complete control), Soybean (soybean; Rate 250 g/ha, Postemergence) | Soybean plant response rating (soybean; [11]) | Redroot pigweed plant response rating (pigweed; [5]) | Redroot pigweed plant response rating (pigweed; [6]) | Plant response rating, Redroot pigweed (pigweed; [7]) | Redroot pigweed plant response rating (pigweed; [8]) | Redroot pigweed plant response rating (pigweed; [9]) | Redroot pigweed plant response rating (pigweed; [10]) | Plant response rating (0 to 10; 0 is no effect, 10 is complete control), Redroot pigweed (pigweed; Rate 250 g/ha, Postemergence) | Redroot pigweed plant response rating (pigweed; [11]) | Corn plant response rating (corn; [5]) | Corn plant response rating (corn; [6]) | Plant response rating, Corn (corn; [7]) | Corn plant response rating (corn; [8]) | Corn plant response rating (corn; [9]) | Corn plant response rating (corn; [10]) | Plant response rating (0 to 10; 0 is no effect, 10 is complete control), Corn (corn; Rate 250 g/ha, Postemergence) | Corn plant response rating (corn; [11]) | Giant foxtail plant response rating (giant foxtail; [5]) | Giant foxtail plant response rating (giant foxtail; [6]) | Plant response rating, Giant foxtail (giant foxtail; [7]) | Giant foxtail plant response rating (giant foxtail; [8]) | Giant foxtail plant response rating (giant foxtail; [9]) | Giant foxtail plant response rating (giant foxtail; [10]) | Plant response rating (0 to 10; 0 is no effect, 10 is complete control), Giant foxtail (giant foxtail; Rate 250 g/ha, Postemergence) | Giant foxtail plant response rating (giant foxtail; [11]) | S. Flatsedge plant response rating (smallflower flatsedge; [1]) | S. Flatsedge plant response rating (smallflower flatsedge; [2]) | S. Flatsedge plant response rating (smallflower flatsedge; [3]) | S. Flatsedge plant response rating (smallflower flatsedge; [4])
7: Morningglory plant response rating (morningglory; [11])
2: Morningglory plant response rating (morningglory; [8]) | Morningglory plant response rating (morningglory; [9])
